What all share (format): in vivo
Experiment [1] in a line: Plasma lipids in ob/ob mice, 6 weeks, 48-hour fast. As to the method:
(§1) Plasma lipids (triglycerides, total cholesterol, phospholipids) were measured on an automatic analyser (Hitachi 717®). The commercial kits used to assess triglycerides, total cholesterol and phospholipids on this analyser were all from bioMérieux (references 61238, 61219 and 61491, respectively). Plasma non esterified fatty acids (NEFA) were assessed by using a commercial kit (Wako, reference 994-75409). Hepatic and plasma lipids were performed at the end of six weeks of treatment in animals that have been fasted for 48 hours. Triglycerides and HDL-cholesterol were also assessed after 2 months (in the fed state) or after 4 months of treatment (after an overnight fast).
Plasma lipids were assessed in ob/ob mice fed with a standard diet and receiving or not β-aminoisobutyric acid (BAIBA) in the drinking water during 6 weeks. These animals (7 controls and 10 treated with BAIBA) were those used for the determination of hepatic lipids (see above, paragraph II-b). At the end of the 6 weeks of treatment, mice were submitted to a 48-hour period of fast. Samples of blood were then collected (from the retroorbital sinus) for the assessment of plasma triglycerides, phospholipids and total cholesterol and mice were subsequently killed for assessment of liver triglycerides (see above). In this experiment, BAIBA decreased by 5, 23 and 19%, respectively plasma triglycerides, phospholipids and total cholesterol. The results are submitted in FIG. 7.

The nature of experiment [2]: Plasma lipids in very young ob/ob mice. The following applies: very young ob/ob mice (6 weeks at the beginning). As to the method:
as §1
Accordingly, plasma triglycerides were 1.35 and 1.39 mmol/L in ob/ob mice in the present study, whereas much higher levels (1.96 mmol/L) were found in Swiss mice fed with the western diet (see above). Thus, it remains possible that the beneficial effects of BAIBA on plasma lipids are more pronounced when lipid levels are above a certain threshold. In keeping with this notion, BAIBA reduced by 22% plasma triglycerides in mice fed with the western diet (FIG. 6).

Experiment [3] can be described thus: Plasma lipids in lean mice fed with a standard diet, 6 weeks, not fasted. The following applies: 100 mg/kg/day 6 weeks. The procedure: as §1
Plasma lipids were assessed in lean mice fed with a standard diet and receiving or not of 100 mg/kg/day of β-aminoisobutyric acid (BAIBA) in the drinking water during 6 weeks. There were six animals per group. At the end of the 6 weeks of treatment, mice were not fasted and samples of blood were then collected for the assessment of plasma triglycerides and total cholesterol. […] Indeed, plasma triglycerides were 3.18±0.23 and 2.95±0.21 mmol/L, respectively in control and treated mice whereas plasma total cholesterol was 5.35±0.35 and 5.23±0.28 mmol/L, respectively in control and treated mice.

Experiment [4] is described as follows: Plasma glucose and insulin in obese ob/ob mice (10 to 12-weeks old), 6 weeks. As to the method:
Plasma glucose was measured on an automatic analyser (Synchron LX20 from Beckman Coulter) with a commercial kit (kit n°472500 from Beckman).
Plasma insulin, adiponectin and leptin were measured by radioimmunoassay (RIA). Insulin was measured with the Insulin-CT kit from Cis Bio International (Gif-sur-Yvette, France), whereas plasma leptin and adiponectin were assessed with kits from Linco Research Inc. (St Charles, Mo.). Leptin was not measured in ob/ob mice since these animals are genetically leptin-deficient (Friedman J. M., Halaas J. L., 1998, Nature 395: 763-770). Results regarding insulin were expressed as recommended by kit manufacturer.
In obese ob/ob mice (10 to 12-weeks old) treated with 100 mg/kg/d of β-aminoisobutyric acid for 6 weeks and fasted for the last 48 hours, there was a trend toward lower plasma levels of glucose and insulin. Indeed, plasma glucose was 11.1±1.4 and 9.0±0.9 mmol/L, respectively in control ob/ob mice (n=6) and mice treated with β-aminoisobutyric acid (n=8). Plasma insulin was 37±19 and 24±6 μU/ml, respectively in control mice (n=4) and mice treated with β-aminoisobutyric acid (n=5). […] Indeed, insulin was 83±13 and 64±7 μU/ml, respectively in control mice (n=5) and mice treated with β-aminoisobutyric acid (n=5).

[5] abbreviates: 100 mg/kg/d 6 weeks, ob/ob 10 to 12-weeks old, fasted 48 hours.
[6] abbreviates: obese mice, standard diet, 6 weeks.

On to `CC(CN)C(=O)O` (racemic) [BAIBA, D,L-β-Aminoisobutyric acid], for which, in experiment [1], the “decrease of plasma phospholipids” value amounted to 23%, the “decrease of plasma total cholesterol” value amounted to 19%, the “decrease of plasma triglycerides” value is listed as 5% and the plasma triglycerides stood at 1.32 ± 0.14 mmol/L. The plasma phospholipids in experiment [1] (p<0.01) was found to be 4.07 ± 0.26 mmol/L. In experiment [1] (p<0.05), the plasma total cholesterol was 4.98 ± 0.34 mmol/L. Besides, in experiment [2], the plasma phospholipids came to 4.35 ± 0.11 mmol/L, the plasma total cholesterol came to 4.96 ± 0.15 mmol/L, the plasma triglycerides stood at 1.07 ± 0.03 mmol/L and the “reduction of plasma phospholipids” value amounted to 4%. Moreover, the “reduction of total cholesterol” value in experiment [2] was 5%. In experiment [3], the plasma total cholesterol amounted to 5.23 ± 0.28 mmol/L and the plasma triglycerides was 2.95 ± 0.21 mmol/L. In experiment [4] (setting [5]), this molecule returned a plasma glucose of 9.0 ± 0.9 mmol/L and a plasma insulin of 24±6 μU/ml. The molecule also returned a plasma insulin in experiment [4] (100 mg/kg/d 6 weeks, ob/ob 10 to 12-weeks old, fed state) of 64±7 μU/ml. In experiment [4] (setting [6]), the “decrease of the glucose plasma level” value is reported as “around 20%” and the “decrease of the insulin plasma level” value is listed as “around 35%”.

Values taken from patent US20060167098A1, “Method for the treatment of diseases linked to an accumulation of triglycerides and cholesterol” (Institut National De La Sante ET De LA Recherche Medicale …, priority 2003, published 2006).
